Experiments:
[1] = molecular target: ATP-binding cassette sub-family C member 3 (Homo sapiens, UniProt O15438); test: Inhibition of human MRP3 overexpressed in Sf9 insect cell membrane vesicles assessed as uptake of [3H]-estradiol-17beta-D-glucuronide in presence of ATP and GSH measured after 10 mins by membrane vesicle transport assay; type: ADME, cell-based
[2] = Drug concentration at steady state in human at 200 to 1200 mg, po QD after 24 hrs; conditions: in vivo
[3] = molecular target: ATP-binding cassette sub-family C member 2 (Homo sapiens, UniProt Q92887); test: Inhibition of human MRP2 overexpressed in Sf9 cell membrane vesicles assessed as uptake of [3H]-estradiol-17beta-D-glucuronide in presence of ATP and GSH measured after 20 mins by membrane vesicle transport assay
[4] = clinical; conditions: human, in vivo, po
[5] = molecular target: T1, ATP-binding cassette sub-family C member 4 (Homo sapiens, UniProt O15439); test: Inhibition of human MRP4 overexpressed in Sf9 cell membrane vesicles assessed as uptake of [3H]-estradiol-17beta-D-glucuronide in presence of ATP and GSH measured after 20 mins by membrane vesicle transport assay; type: ADME, cell-based
T1 sequence (O15439 whole entry): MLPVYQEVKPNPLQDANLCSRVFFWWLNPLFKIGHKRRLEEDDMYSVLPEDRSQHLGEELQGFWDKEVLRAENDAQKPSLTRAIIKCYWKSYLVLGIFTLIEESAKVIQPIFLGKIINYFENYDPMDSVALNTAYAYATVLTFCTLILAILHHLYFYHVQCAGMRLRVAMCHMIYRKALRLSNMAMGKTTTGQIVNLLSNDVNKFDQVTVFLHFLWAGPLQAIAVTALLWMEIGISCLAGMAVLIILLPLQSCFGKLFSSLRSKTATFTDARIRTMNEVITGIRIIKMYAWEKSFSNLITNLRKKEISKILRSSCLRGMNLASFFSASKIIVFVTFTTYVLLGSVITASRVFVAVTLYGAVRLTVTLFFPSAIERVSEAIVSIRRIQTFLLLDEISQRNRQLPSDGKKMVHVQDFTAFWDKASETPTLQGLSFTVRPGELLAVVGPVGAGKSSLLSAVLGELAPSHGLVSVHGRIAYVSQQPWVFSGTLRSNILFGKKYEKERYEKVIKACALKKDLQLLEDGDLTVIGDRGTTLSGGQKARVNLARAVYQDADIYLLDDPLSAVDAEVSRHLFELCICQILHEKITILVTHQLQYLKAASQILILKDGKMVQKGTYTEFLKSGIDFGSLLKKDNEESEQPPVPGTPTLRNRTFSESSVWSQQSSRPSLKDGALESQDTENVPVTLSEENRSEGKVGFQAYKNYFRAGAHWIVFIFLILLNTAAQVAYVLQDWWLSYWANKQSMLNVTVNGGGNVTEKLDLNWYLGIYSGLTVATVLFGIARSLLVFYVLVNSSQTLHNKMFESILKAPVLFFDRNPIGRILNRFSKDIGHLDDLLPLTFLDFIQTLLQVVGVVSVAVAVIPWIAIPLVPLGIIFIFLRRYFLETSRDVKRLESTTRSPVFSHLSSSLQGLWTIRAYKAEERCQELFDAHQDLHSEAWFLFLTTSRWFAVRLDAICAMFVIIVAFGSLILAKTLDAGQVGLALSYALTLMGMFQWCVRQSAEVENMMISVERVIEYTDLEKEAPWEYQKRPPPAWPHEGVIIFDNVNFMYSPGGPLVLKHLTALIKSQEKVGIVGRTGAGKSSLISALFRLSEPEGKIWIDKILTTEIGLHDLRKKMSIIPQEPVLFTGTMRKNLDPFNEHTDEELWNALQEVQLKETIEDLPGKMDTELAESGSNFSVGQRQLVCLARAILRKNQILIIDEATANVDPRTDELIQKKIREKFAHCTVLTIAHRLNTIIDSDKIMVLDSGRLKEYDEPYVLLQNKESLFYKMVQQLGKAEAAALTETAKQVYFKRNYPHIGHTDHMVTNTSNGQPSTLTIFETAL

[6] = Ratio of drug concentration at steady state in human at 20 to 40 mg, po QD after 24 hrs to IC50 for human MRP3 overexpressed in Sf9 insect cells; type: ADME, organism-based; conditions: in vivo
[7] = molecular target: Bile salt export pump (Homo sapiens, UniProt O95342); test: Inhibition of human BSEP overexpressed in Sf9 cell membrane vesicles assessed as uptake of [3H]-taurocholate in presence of ATP measured after 15 to 20 mins by membrane vesicle transport assay; type: ADME, cell-based
[8] = Ratio of drug concentration at steady state in human at 20 to 40 mg, po QD after 24 hrs to IC50 for human BSEP overexpressed in Sf9 insect cells; type: ADME, organism-based; conditions: in vivo
[9] = Ratio of drug concentration at steady state in human at 20 to 40 mg, po QD after 24 hrs to IC50 for human MRP4 overexpressed in Sf9 insect cells; type: ADME, organism-based; conditions: in vivo
[10] = AUC in human at 15 to 120 mg, po QD after 24 hrs; type: ADME, organism-based; conditions: in vivo
[11] = Drug concentration at steady state in human at 15 to 120 mg, po QD after 24 hrs; type: ADME, organism-based; conditions: in vivo, read-out: Css
[12] = Ratio of drug concentration at steady state in human at 15 to 120 mg, po QD after 24 hrs to IC50 for human MRP3 overexpressed in Sf9 insect cells; type: ADME, organism-based; conditions: in vivo
[13] = Ratio of drug concentration at steady state in human at 15 to 120 mg, po QD after 24 hrs to IC50 for human MRP4 overexpressed in Sf9 insect cells; type: ADME, organism-based; conditions: in vivo
[14] = Ratio of drug concentration at steady state in human at 15 to 120 mg, po QD after 24 hrs to IC50 for human BSEP overexpressed in Sf9 insect cells; type: ADME, organism-based; conditions: in vivo
[15] = Drug concentration at steady state in human at 20 to 100 mg, po QD or 60 mg, po BID after 12 hrs; type: ADME, organism-based; conditions: in vivo, read-out: Css
[16] = AUC in human at 20 to 100 mg, po QD or 60 mg, po BID after 12 hrs; type: ADME, organism-based; conditions: in vivo
[17] = Ratio of drug concentration at steady state in human at 20 to 100 mg, po QD or 60 mg, po BID after 12 hrs to IC50 for human BSEP overexpressed in Sf9 insect cells; type: ADME, organism-based; conditions: in vivo
[18] = Ratio of drug concentration at steady state in human at 200 mg, po Q3h measured after 3 hrs to IC50 for human MRP3 overexpressed in Sf9 insect cells; type: ADME, organism-based; conditions: in vivo
[19] = AUC in human at 200 mg, po Q3h measured after 3 hrs; type: ADME, organism-based; design: dose 200 mg, time < 3 hr, route oral; conditions: in vivo
[20] = Ratio of drug concentration at steady state in human at 200 mg, po Q3h measured after 3 hrs to IC50 for human MRP4 overexpressed in Sf9 insect cells; type: ADME, organism-based; conditions: in vivo
[21] = Drug concentration at steady state in human at 200 mg, po Q3h measured after 3 hrs; type: ADME, organism-based; conditions: in vivo, read-out: Css
[22] = Ratio of drug concentration at steady state in human at 200 mg, po Q3h measured after 3 hrs to IC50 for human BSEP overexpressed in Sf9 insect cells; type: ADME, organism-based; conditions: in vivo
[23] = Drug concentration at steady state in human at 0.5 to 2 mg/kg, po QD after 24 hrs; type: ADME, organism-based; conditions: in vivo, read-out: Css
[24] = AUC in human at 0.5 to 2 mg/kg, po QD after 24 hrs; type: ADME, organism-based; conditions: in vivo
[25] = Ratio of drug concentration at steady state in human at 0.5 to 2 mg/kg, po QD after 24 hrs to IC50 for human BSEP overexpressed in Sf9 insect cells; type: ADME, organism-based; conditions: in vivo

Bile salt export pump, sequence (O95342 whole entry): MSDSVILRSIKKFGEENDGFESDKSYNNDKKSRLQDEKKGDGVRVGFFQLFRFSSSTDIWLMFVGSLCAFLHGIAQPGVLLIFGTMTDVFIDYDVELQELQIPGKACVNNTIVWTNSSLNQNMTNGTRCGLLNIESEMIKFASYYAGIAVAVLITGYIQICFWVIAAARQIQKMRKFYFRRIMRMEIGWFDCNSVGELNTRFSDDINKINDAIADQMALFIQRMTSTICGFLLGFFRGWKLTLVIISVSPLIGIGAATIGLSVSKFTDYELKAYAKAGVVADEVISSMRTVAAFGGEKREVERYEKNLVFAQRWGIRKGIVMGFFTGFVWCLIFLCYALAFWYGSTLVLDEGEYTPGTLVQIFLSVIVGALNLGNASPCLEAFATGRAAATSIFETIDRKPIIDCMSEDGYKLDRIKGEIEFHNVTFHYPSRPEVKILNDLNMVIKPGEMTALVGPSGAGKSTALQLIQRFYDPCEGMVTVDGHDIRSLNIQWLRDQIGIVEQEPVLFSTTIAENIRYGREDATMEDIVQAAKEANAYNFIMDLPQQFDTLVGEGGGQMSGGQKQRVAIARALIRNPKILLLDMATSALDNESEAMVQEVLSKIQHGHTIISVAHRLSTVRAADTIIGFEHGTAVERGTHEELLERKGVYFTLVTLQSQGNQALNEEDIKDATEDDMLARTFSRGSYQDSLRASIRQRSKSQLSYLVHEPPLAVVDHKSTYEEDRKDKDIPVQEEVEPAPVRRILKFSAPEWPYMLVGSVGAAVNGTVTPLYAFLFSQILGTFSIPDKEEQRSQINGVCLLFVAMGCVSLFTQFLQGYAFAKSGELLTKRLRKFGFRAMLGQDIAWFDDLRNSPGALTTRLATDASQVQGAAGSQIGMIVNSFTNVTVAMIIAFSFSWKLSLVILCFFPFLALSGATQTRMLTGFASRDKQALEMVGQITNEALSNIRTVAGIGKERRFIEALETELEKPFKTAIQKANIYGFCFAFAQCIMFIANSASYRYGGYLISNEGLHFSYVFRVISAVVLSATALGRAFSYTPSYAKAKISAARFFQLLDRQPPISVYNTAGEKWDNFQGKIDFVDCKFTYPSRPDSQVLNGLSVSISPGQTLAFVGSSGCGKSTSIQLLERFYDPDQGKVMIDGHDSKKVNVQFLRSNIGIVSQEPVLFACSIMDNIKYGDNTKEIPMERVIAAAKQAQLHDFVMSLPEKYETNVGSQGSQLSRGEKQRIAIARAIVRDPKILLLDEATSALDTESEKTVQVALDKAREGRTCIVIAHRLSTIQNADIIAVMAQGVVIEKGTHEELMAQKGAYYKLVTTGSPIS
ATP-binding cassette sub-family C member 3, sequence (O15438 whole entry): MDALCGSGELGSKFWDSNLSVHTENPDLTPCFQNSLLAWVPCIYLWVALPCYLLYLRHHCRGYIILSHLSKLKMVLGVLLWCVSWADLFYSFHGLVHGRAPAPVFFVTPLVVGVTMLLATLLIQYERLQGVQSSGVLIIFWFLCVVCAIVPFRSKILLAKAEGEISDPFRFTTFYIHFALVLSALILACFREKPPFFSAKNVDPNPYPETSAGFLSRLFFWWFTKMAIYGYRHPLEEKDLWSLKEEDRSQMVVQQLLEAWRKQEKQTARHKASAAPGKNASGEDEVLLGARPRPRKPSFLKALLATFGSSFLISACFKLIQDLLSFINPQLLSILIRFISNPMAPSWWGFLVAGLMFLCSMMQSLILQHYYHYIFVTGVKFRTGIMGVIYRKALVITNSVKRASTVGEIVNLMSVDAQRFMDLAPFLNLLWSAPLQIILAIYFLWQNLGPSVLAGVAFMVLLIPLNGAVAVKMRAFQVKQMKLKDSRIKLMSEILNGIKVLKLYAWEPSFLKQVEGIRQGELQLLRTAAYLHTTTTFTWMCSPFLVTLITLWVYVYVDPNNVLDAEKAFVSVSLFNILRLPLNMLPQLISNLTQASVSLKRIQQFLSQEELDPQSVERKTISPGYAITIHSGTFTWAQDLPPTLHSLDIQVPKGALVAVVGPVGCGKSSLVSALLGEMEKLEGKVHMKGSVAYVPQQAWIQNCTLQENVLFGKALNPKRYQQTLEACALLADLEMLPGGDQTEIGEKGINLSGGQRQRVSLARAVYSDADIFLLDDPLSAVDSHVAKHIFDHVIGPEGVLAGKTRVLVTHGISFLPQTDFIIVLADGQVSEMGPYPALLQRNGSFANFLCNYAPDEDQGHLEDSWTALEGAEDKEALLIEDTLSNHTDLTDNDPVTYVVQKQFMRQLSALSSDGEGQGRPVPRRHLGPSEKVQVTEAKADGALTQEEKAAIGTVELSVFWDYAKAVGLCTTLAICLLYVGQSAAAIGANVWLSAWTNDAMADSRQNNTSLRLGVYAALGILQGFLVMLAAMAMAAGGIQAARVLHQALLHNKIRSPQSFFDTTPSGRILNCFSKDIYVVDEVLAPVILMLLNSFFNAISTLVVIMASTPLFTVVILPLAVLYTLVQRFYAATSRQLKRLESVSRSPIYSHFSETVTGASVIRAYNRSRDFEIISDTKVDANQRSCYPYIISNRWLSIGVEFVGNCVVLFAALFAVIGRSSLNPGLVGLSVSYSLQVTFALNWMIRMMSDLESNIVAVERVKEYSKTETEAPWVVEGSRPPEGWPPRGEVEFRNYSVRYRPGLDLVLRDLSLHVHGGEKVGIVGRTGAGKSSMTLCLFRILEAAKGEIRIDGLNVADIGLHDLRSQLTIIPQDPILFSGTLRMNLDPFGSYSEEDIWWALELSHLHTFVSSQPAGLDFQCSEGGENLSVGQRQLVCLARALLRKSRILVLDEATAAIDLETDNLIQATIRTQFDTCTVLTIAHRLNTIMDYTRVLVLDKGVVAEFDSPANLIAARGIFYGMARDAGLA
ATP-binding cassette sub-family C member 2, sequence (Q92887 whole entry): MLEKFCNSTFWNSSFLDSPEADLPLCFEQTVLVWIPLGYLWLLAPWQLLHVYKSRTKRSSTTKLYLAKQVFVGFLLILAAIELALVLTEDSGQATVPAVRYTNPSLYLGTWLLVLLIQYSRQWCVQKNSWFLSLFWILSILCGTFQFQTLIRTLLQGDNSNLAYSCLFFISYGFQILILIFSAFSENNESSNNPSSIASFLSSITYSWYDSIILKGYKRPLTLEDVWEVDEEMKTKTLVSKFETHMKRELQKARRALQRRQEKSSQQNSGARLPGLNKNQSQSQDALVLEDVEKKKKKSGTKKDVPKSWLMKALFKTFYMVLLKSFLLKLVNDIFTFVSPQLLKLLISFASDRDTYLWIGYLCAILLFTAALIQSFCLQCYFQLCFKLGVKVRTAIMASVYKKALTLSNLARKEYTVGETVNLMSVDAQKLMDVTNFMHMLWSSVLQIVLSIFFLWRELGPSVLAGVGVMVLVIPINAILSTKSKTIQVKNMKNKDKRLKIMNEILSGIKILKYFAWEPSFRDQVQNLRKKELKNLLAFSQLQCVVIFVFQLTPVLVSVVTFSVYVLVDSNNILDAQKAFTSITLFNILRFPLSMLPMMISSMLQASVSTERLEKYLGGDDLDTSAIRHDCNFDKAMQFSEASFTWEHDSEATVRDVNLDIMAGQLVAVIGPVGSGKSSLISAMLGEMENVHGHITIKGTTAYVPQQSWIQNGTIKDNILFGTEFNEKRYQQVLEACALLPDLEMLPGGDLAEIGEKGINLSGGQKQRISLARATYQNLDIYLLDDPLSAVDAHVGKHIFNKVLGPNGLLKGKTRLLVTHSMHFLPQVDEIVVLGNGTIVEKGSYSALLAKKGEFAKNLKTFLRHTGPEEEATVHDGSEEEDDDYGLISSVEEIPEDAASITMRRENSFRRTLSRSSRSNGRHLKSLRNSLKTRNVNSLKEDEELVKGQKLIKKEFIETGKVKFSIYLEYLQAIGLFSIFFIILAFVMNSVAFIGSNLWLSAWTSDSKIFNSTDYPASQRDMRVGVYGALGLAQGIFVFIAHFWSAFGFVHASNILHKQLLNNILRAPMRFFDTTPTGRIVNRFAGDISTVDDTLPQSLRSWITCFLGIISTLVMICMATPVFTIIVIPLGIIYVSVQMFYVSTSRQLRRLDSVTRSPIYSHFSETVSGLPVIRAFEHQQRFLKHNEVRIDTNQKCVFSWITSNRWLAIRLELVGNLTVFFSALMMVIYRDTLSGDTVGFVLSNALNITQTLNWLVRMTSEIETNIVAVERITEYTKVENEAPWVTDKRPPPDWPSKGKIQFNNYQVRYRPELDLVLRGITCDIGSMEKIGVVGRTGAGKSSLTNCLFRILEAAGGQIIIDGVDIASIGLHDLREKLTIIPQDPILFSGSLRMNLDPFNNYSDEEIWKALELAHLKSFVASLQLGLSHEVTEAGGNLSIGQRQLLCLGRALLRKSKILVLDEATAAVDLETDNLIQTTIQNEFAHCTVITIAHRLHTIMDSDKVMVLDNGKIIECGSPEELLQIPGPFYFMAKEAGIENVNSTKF

SMILES | IC50 [1] [µM] | IC50 [3] [µM] | IC50 [5] [µM] | IC50 [7] [µM] | other results
CCCCc1oc2ccccc2c1C(=O)c1cc(I)c(OCCN(CC)CC)c(I)c1 [AMIODARONE] | > 133 | > 133 | > 133 | – | concentration at 24 h [2]: 1360 nM; AUC at 24 h [4]: 32.7 µM·h
COCCCOc1ccnc(C[S+]([O-])c2nc3ccccc3[n-]2)c1C.[Na+] (configuration not stated) [RABEPRAZOLE SODIUM] | > 133 | > 133 | > 133 | 33.9 | concentration at 12 h [15]: 1210 nM; AUC at 12 h [16]: 14.5 µM·h; Ratio [17]: 0.036
CCN(CC)C(=O)/C(C#N)=C/c1cc(O)c(O)c([N+](=O)[O-])c1 [ENTACAPONE] | 35.1 | > 133 | 6.8 | 55.6 | Ratio [18]: 0.05; AUC at 3 h [19]: 5.29 µM·h; Ratio [20]: 0.259; concentration at 3 h [21]: 1760 nM; Ratio [22]: 0.032
CC1=C(/C=C/C(C)=C/C=C/C(C)=C\C(=O)O)C(C)(C)CCC1 [ISOTRETINOIN] | > 133 | > 133 | > 133 | 37.1 | concentration at 24 h [23]: 1390 nM; AUC at 24 h [24]: 33.3 µM·h; Ratio [25]: 0.037

Now those with a lower IC50 [1], led by results:

IC50 [1] [µM] | IC50 [3] [µM] | IC50 [5] [µM] | SMILES | IC50 [7] [µM] | other results
23.9 | – | 6.3 | COc1ccc2c(c1)C(=O)N(CCc1ccc(S(=O)(=O)NC(=O)NC3CCCCC3)cc1)C(=O)C2(C)C [GLIQUIDONE] | 11.6 | AUC at 24 h [10]: 9.67 µM·h; concentration at 24 h [11]: 403 nM; Ratio [12]: 0.017; Ratio [13]: 0.064; Ratio [14]: 0.035
2 | – | 28.5 | CCCc1nc(C(C)(C)O)c(C(=O)OCc2oc(=O)oc2C)n1Cc1ccc(-c2ccccc2-c2nnn[nH]2)cc1 [OLMESARTAN MEDOXOMIL] | 4.73 | Ratio [6]: 0.192; Ratio [8]: 0.081; Ratio [9]: 0.014

— ChEMBL document CHEMBL4028801, “A multifactorial approach to hepatobiliary transporter assessment enables improved therapeutic compound development” (Toxicol Sci, 2013)
